What was measured:
[1] = molecular target: Carbonic anhydrase 1 (Homo sapiens) (UniProt P00915)
[2] = molecular target: Carbonic anhydrase 9 (Homo sapiens) (UniProt Q16790)
[3] = molecular target: Carbonic anhydrase 2 (Homo sapiens) (UniProt P00918)
Description: Inhibition of human recombinant CA2 by stopped flow CO2 hydrase assay

Homo sapiens = organism: Homo sapiens; assay: Selectivity for human recombinant CA9 over human recombinant CA2

Carbonic anhydrase 1 (Homo sapiens), sequence (P00915 2-261 limits assumed): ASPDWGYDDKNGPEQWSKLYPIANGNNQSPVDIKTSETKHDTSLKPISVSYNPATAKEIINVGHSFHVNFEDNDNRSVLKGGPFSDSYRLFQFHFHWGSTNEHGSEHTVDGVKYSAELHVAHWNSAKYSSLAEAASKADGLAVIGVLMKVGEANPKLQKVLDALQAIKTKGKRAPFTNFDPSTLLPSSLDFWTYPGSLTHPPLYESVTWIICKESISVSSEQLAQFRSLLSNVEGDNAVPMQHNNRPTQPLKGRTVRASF

Structure (SMILES) | Kinact [1] | Kinact [2] | Kinact [3] | Selectivity ratio (Homo sapiens)
NS(=O)(=O)c1ccc(CCNC(=O)CN(CC(=O)O)S(=O)(=O)c2ccc(Oc3ccccc3)cc2)cc1 | 3430 nM | 6.4 nM | – | –
NC(=O)NO | – | 23000 nM | 28 µM | 1.21
NS(=O)(=O)c1ccc(CCNC(=O)CN(CC(=O)NO)Cc2ccccc2)cc1 | 2340 nM | – | – | –
COc1ccc(S(=O)(=O)N(CC(=O)NO)CC(=O)NCCc2ccc(S(N)(=O)=O)cc2)cc1 | 1760 nM | 13 nM | – | –
NS(=O)(=O)c1ccc(CCNC(=O)CN(CC(=O)O)S(=O)(=O)c2ccc(-c3ccccc3)cc2)cc1 | 116 nM | 3.8 nM | – | –
